Results from patent publication US11672959B2, “Expandable member systems and methods for drug delivery” (Intersect ENT, Inc., priority 2019, dated 2023).

Tests used:
[1] = tissue concentration of mometasone furoate after balloon expansion in Eustachian tubes (LCMS); format: in vivo, domestic sheep; conditions: sheep, Eustachian tube mucosa, 1500 μg balloon expanded to 12 atm, read-out: maximum mometasone furoate tissue concentration
Experimental: The Eustachian tubes of eight domestic sheep were accessed transnasally using balloon catheters having drug layers containing 1500 μg of mometasone furoate. The balloon catheters were made as described in Example 1. A singe balloon catheter was expanded to 12 atm of pressure to deliver the mometasone furoate crystals to Eustachian tube tissue and to dilate each contralateral Eustachian tube at its proximal opening. The animals were sacrificed at either 7 days or 30 days after balloon expansion, and mucosa from each Eustachian tube collected and frozen. Mometasone furoate concentration was then quantified using liquid chromatography mass spectrometry (LCMS).

[2] = plasma MF concentration after balloon expansions in sheep frontal sinus ostia; format: in vivo
[3] = in vitro release rates for expandable members having varying amounts of crystalline mometasone furoate (FIG. 4); format: physicochemical
Source text: FIG. 4 is a graph comparing the in vitro release rates for expandable members having varying amounts of crystalline mometasone furoate. The amount of crystalline and amorphous drug provided in the drug layer will generally vary depending on the active agent employed, target tissue being treated, therapeutic drug level desired in the target tissue, and/or the drug release profile desired. For example, the ratio of amorphous to crystalline drug in the drug layer can be about 1:3, 1:2, 1:1, 2:1, or 3:1. A higher amorphous to crystalline drug ratio can lead to quicker tissue absorption due to the higher solubility of amorphous drug. In turn, a higher crystalline to amorphous drug ratio can lead to longer residence time of the drug on tissue. […] Thus, a combination of amorphous and crystalline drug in the drug layer can provide immediate release of the active agent to begin treatment of a nose, ear, or throat condition, as well as sustained release of the active agent into the target tissue, as illustrated by the moderate in vitro release rates for drug layers subjected to solvent vapor annealing (SVA) in FIG. 4. In some variations, the drug layer is formed to include about 60% of the active agent as drug crystals. In one variation, the drug layer is formed to include mometasone furoate, where about 60% of the mometasone furoate is in crystalline form. The ratio of crystalline to amorphous drug in the drug layer can be adjusted during the drug layering process onto the expandable member, e.g., during the solvent vapor annealing process, as further described below, or during sterilization.

[4] = tissue MF concentration after balloon expansion in sheep frontal sinus ostia; conditions: for concentration at 30 days / concentration at 7 days / concentration at 14 days / concentration at 1 hour: sheep; for concentration at 1 hour: Approx. 1 hour after inflation
Experimental: (§1) The amount of mometasone furoate transferred to the ostia (total MF released) was measured after inflation of balloons having a drug layer including the listed dose of mometasone furoate drug crystals and poly(ethylene glycol) and polysorbate as the excipients.
(§2) In this Example, drug layered balloons were made according to Example 1 and used to dilate sheep frontal ostia.

[5] = MF released from drug layered balloon on inflation in sheep frontal sinus ostia; format: in vivo
Experimental: as §1
Expandable members were made by spray coating 6 mm×20 mm semi-compliant balloons with a drug layer formulation. The drug layer formulation included either a 1500 μg or 3000 μg dose of mometasone furoate, poly(ethylene glycol), and a polysorbate. The drug layered balloons were then exposed in an acetone solvent vapor for 30 minutes.
as §2

[6] = frontal sinus ostia tissue, 3000 μg, Average Tissue MF Concentrations, Frontal Sinus Ostia, MF Dose 3000 μg, Study Arm 1, 2
[7] = nasal passage tissue, 3000 μg, Average Tissue MF Concentrations, Nasal Passage, MF Dose 3000 μg, Study Arm 1, 2

SMILES: C[C@@H]1C[C@H]2[C@@H]3CCC4=CC(=O)C=C[C@]4(C)[C@@]3(Cl)[C@@H](O)C[C@]2(C)[C@@]1(OC(=O)c1ccco1)C(=O)CCl [MF, mometasone furoate]
- concentration at 7 days ([1]; 7 days): 47000 ng/g
- concentration at 30 days ([1]; 30 days): 200 ng/g
- MF Concentration Plasma ([2]; MF Dose 1500 μg, 30 days, analytical range 20.0-1000.0 pg/mL): BLQ (Below Limit of Quantitation (≤20.0 pg/mL))
- plasma levels ([2]; MF dose 1500 μg, 30 days post the two expansions): below the limit of quantitation
- in vitro release rate ([3]; drug layer contains the active agent only as crystals (100% crystals)): slowest
- in vitro release rate ([3]; drug layer contains the active agent only in amorphous form (0% crystals)): fastest
- in vitro release rates ([3]; drug layers subjected to solvent vapor annealing (SVA), amorphous and crystalline drug): moderate
- average tissue MF concentrations for the frontal sinus ostia relative to therapeutic levels ([4]; MF Dose 3000 μg, all time points): at or above therapeutic levels
- concentration at 30 days ([4]; frontal sinus ostia tissue, 1500 μg, Average 30 day tissue MF Concentration in Sinus Ostia, 36.4% drug crystals, crystal size 78.7 μm, 30 days): 5000 ng/g
- concentration at 30 days ([4]; frontal sinus ostia tissue, 1500 μg, Average 30 day tissue MF Concentration in Sinus Ostia, 62.5% drug crystals, crystal size 128.1 μm, 30 days): 1000 ng/g
- concentration at 30 days ([4]; frontal sinus ostia tissue, 1500 μg, MF Concentration Frontal Sinus Ostia Tissue, MF Dose 1500 μg, explant timepoint 30 days, two expansions): 5000 ng/g
- concentration at 30 days ([4]; frontal sinus ostia tissue, 1500 μg, average tissue MF concentrations for the frontal sinus ostia, MF dose 1500 μg, 30 days, compared with therapeutic level): > 100 ng/g
- concentration at 30 days ([4]; frontal sinus ostia tissue, 1500 μg, mometasone furoate concentrations in tissue at 30 days, crystals sized less than 80 μm, less than 60% of the drug layer containing drug crystals): ~5000 ng/g
- concentration at 30 days ([4]; frontal sinus ostia tissue, 3000 μg, Average 30 day tissue MF Concentration in Sinus Ostia, 60.4% drug crystals, crystal size 91.1 μm, 30 days): 100 ng/g
- concentration at 30 days ([4]; frontal sinus ostia tissue, 3000 μg, Average 30 day tissue MF Concentration in Sinus Ostia, 67.4% drug crystals, crystal size 132.6 μm, 30 days): 2000 ng/g
- concentration at 7 days [4, 6]: 9890 ng/g
- concentration at 14 days [4, 6]: 1250 ng/g
- concentration at 30 days ([4]; frontal sinus ostia tissue, 3000 μg, Average Tissue MF Concentrations, Frontal Sinus Ostia, MF Dose 3000 μg, Study Arm 1, 2, 30 days): 100 ng/g
- concentration at 1 hour [4, 6]: 142000 ng/g
- concentration at 30 days ([4]; in vivo, 30 day tissue concentrations (in sheep frontal sinus ostia)): ≥ 100 ng/g
- concentration at 7 days [4, 7]: 60 ng/g
- concentration at 14 days [4, 7]: 20 ng/g
- concentration at 30 days ([4]; nasal passage tissue, 3000 μg, Average Tissue MF Concentrations, Nasal Passage, MF Dose 3000 μg, Study Arm 1, 2, 30 days): 1380 ng/g
- concentration at 1 hour [4, 7]: 4730 ng/g
- Total MF Released ([5]; Dose 1500 μg, 36.4% drug crystals, crystal size 78.7 μm, PEG and polysorbate excipients): 350 µg
- Total MF Released ([5]; Dose 1500 μg, 62.5% drug crystals, crystal size 128.1 μm): 478 µg
- Total MF Released ([5]; Dose 3000 μg, 60.4% drug crystals, crystal size 91.1 μm): 1778 µg
- Total MF Released ([5]; Dose 3000 μg, 67.4% drug crystals, crystal size 132.6 μm): 1058 µg
- MF Release (% MF Dose) ([5]; MF Dose 1500 μg, 1st inflation, Study Arm 2 (treatment)): 35 % MF Dose
- Average MF Release per Inflation ([5]; MF Dose 1500 μg, 1st inflation, Study Arm 2 (treatment), n=4): 524 µg
- MF Release (% MF Dose) ([5]; MF Dose 1500 μg, 2nd inflation, Study Arm 1 (treatment)): 12 % MF Dose
- Average MF Release per Inflation ([5]; MF Dose 1500 μg, 2nd inflation, Study Arm 1 (treatment), n=4): 176 µg
- Average MF Release per Inflation ([5]; MF Dose 1500 μg, Average over first two inflations): 350 µg
- Total MF Released ([5]; MF Dose 1500 μg, Table 7): 350 µg
- Average % MF Release per Inflation ([5]; MF Dose 3000 μg, Study Arm 1, two expansions): 30%
- Average MF Release per Inflation ([5]; MF Dose 3000 μg, Study Arm 1, two expansions, n=32 devices): 889 µg
- Average % MF Release per Inflation ([5]; MF Dose 3000 μg, Study Arm 2 (bloody sheep frontal sinus ostia)): 28%
- Average MF Release per Inflation ([5]; MF Dose 3000 μg, Study Arm 2 (bloody sheep frontal sinus ostia), n=4 devices): 854 µg
